Reference: the NIST ThermoML archive (doi:10.1016/j.fluid.2005.02.009)

Conditions: Liquid

CCOCCO [2-ethoxyethan-1-ol]
viscosity [mPa·s]
Conditions	293.15 K	303.15 K	313.15 K	323.15 K	333.15 K	343.15 K	353.15 K
100 kPa	2.073	1.663	1.346	1.117	0.941	0.804	0.695
20000 kPa	2.417	1.922	1.599	1.32	1.081	0.939	0.829
40000 kPa	2.776	2.21	1.834	1.529	1.236	1.078	0.953
60000 kPa	3.145	2.512	2.071	1.743	1.408	1.221	1.068
80000 kPa	3.509	2.816	2.308	1.931	1.592	1.362	1.172
100000 kPa	3.859	3.115	2.543	2.13	1.787	1.5	1.265

CC(C)OCCO [2-isopropoxyethanol]
viscosity [mPa·s]
Conditions	293.15 K	303.15 K	313.15 K	323.15 K	333.15 K	343.15 K	353.15 K
100 kPa	2.38	1.87	1.506	1.228	1.024	0.864	0.739
20000 kPa	2.939	2.284	1.861	1.485	1.25	1.046	0.927
40000 kPa	3.493	2.691	2.186	1.731	1.48	1.236	1.09
60000 kPa	4.073	3.123	2.512	2.002	1.72	1.445	1.236
80000 kPa	4.661	3.566	2.838	2.296	1.966	1.669	1.368
100000 kPa	5.241	4.008	3.162	2.611	2.212	1.903	1.536

COCCO [2-methoxyethan-1-ol]
viscosity [mPa·s]
Conditions	293.15 K	303.15 K	313.15 K	323.15 K	333.15 K	343.15 K	353.15 K
100 kPa	1.707	1.398	1.162	0.984	0.843	0.731	0.635
20000 kPa	1.948	1.583	1.339	1.135	0.965	0.852	0.738
40000 kPa	2.186	1.777	1.489	1.268	1.084	0.958	0.834
60000 kPa	2.426	1.977	1.647	1.405	1.21	1.058	0.924
80000 kPa	2.659	2.176	1.814	1.544	1.338	1.149	1.006
100000 kPa	2.878	2.367	1.988	1.685	1.466	1.231	1.08
